Assay results reported in EP3952872B1, “CARBAMOYL CYCLOHEXANE DERIVATIVES FOR TREATING AUTISM SPECTRUM DISORDER” (Richter Gedeon Nyrt., priority 2019, dated 2020).
“Also recorded” adds a separate entry of the source. Read-outs that look alike come from different tables or passages of the source.

How the values were obtained:
[1] = target: T1, serotonin 5-HT1A receptor (Homo sapiens, UniProt P08908); experiment: biochemical
T1 sequence (P08908 1-422): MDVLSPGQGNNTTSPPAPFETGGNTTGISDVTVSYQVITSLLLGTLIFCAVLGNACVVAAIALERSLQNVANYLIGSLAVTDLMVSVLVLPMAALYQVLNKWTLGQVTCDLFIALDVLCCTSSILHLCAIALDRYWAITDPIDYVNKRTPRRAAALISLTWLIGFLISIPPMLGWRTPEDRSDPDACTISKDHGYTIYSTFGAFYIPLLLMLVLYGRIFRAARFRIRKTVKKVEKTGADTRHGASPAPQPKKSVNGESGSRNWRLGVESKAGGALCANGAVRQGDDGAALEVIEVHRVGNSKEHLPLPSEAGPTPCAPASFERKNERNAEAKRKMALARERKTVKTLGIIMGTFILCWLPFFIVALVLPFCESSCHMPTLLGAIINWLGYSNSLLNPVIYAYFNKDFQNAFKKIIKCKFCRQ

dopamine D2L receptor = dopamine D2L receptor (Homo sapiens, UniProt P14416); experiment: dopamine D2L receptor affinity; format: binding
dopamine D2S receptor = dopamine D2S receptor (Homo sapiens, UniProt P14416); experiment: dopamine D2S receptor affinity; format: binding
dopamine D2 receptor [2] = target: T2, dopamine D2 receptor (Homo sapiens, UniProt P14416); experiment: functional activity at dopamine D2 receptor; format: biochemical; settings: Compound 2
[3] = target: T1, serotonin 5-HT1A receptor; settings: Compound 2
[4] = target: T3, serotonin 5-HT2B receptor (Homo sapiens, UniProt P41595); experiment: serotonin 5-HT2B receptor affinity; format: binding
[5] = target: T3, serotonin 5-HT2B receptor; experiment: functional activity at serotonin 5-HT2B receptor; format: biochemical; settings: Compound 2
[6] = system: prenatally valproate-treated rats; experiment: open field assay, prenatal valproate model; format: in vivo, Wistar rats; settings: p.o. daily for 9 days, 0.003-0.1 mg/kg, male offspring
Protocol: Offspring are housed according to standard laboratory conditions until time of behavioral testing. Animals are housed in groups of 4 in conventional cages and maintained at 22-24°C on a standard 12 hour light/dark cycle, with food and water available ad libitum. After investigational drug treatment, offspring are examined behaviorally in tests relevant for the assessment of autistic behavior. These tests include maternal deprivation-induced ultrasonic vocalization in rat pups, social play, social preference and the open field. […] At postnatal day 31-32, animals are scored for locomotor activity and exploratory behavior in a 10-min trial in an open field test arena after 9-day oral treatment with the test compound. Activity is analysed for readouts of repetitive/stereotypic behaviors such as total distance moved and frequency of circling behavior. Statistical analysis employs one-way ANOVA and the post hoc Dunnett test.

dopamine D2 receptor [7] = target: T2, dopamine D2 receptor; settings: literature; cited from earlier work
[8] = system: prenatally valproate-treated rats; experiment: maternal deprivation-induced ultrasonic vocalization in rat pups, prenatal valproate model; format: in vivo, Wistar rats; settings: acute p.o.; effect at 0.003, 0.03 and 0.1 mg/kg (0.01 mg/kg also tested); Figure 1
Protocol: Ultrasonic call counts are recorded for 10 min.

[9] = target: T1, serotonin 5-HT1A receptor; settings: cited from earlier work
[10] = system: prenatally valproate-treated rats; experiment: social play behavior, prenatal valproate model; format: in vivo, Wistar rats; settings: p.o. daily for 8 days; 0.003-0.1 mg/kg, significant at 0.1 mg/kg; male offspring; Figure 3
Protocol: Offspring are housed according to standard laboratory conditions until time of behavioral testing. Animals are housed in groups of 4 in conventional cages and maintained at 22-24°C on a standard 12 hour light/dark cycle, with food and water available ad libitum. After investigational drug treatment, offspring are examined behaviorally in tests relevant for the assessment of autistic behavior. These tests include maternal deprivation-induced ultrasonic vocalization in rat pups, social play, social preference and the open field. […] At postnatal day 30, following 8 days treatment with the test compound, prenatally VPA-treated rats are evaluated for juvenile play behavior. The test is carried out in a novel test arena with pairs of animals from the same treatment group over a 15-min trial. Animals are scored for play activity measured by duration of social play behavior. Statistical analysis employs one-way ANOVA and the post hoc Dunnett test.

[11] = target: T3, serotonin 5-HT2B receptor; settings: literature; cited from earlier work

T3 sequence (P41595 whole entry): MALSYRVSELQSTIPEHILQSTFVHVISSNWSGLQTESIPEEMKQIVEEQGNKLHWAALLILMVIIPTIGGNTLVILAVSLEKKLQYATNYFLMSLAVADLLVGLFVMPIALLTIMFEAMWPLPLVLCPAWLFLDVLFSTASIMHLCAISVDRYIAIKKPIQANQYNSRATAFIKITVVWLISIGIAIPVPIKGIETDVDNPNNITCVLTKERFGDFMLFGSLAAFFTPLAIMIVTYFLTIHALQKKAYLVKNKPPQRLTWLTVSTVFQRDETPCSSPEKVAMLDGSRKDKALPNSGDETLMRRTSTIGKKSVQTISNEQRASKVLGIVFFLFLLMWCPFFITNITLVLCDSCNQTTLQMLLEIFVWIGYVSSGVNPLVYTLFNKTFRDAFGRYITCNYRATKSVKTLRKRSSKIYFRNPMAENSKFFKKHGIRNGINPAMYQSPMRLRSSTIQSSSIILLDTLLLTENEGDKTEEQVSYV
T2 sequence (P14416 whole entry): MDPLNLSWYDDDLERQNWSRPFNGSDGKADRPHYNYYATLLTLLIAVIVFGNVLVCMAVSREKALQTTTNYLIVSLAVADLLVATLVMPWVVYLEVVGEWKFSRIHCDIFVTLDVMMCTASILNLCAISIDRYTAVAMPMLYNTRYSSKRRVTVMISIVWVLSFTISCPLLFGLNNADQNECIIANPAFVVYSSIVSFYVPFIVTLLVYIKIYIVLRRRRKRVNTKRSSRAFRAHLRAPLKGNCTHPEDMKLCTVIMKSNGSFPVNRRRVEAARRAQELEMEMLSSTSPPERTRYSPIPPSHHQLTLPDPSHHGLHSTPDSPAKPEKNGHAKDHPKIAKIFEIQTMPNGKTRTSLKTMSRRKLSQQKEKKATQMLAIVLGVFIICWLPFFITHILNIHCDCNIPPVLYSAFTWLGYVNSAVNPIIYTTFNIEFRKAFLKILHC
Sequence of dopamine D2L receptor (P14416 whole entry): as above
Sequence of dopamine D2S receptor (P14416 1-414 isoform P14416-2): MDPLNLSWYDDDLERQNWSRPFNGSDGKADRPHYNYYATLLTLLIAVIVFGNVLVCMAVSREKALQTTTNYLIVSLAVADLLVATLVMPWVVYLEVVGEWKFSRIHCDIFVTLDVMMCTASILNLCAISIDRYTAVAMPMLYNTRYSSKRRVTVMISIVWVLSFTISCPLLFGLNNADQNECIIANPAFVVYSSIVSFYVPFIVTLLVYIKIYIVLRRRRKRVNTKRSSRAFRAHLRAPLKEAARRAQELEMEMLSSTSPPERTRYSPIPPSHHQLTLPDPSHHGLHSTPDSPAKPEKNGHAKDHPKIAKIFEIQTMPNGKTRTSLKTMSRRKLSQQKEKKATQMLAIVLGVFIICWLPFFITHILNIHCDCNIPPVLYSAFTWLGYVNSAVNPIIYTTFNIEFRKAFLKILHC

Molecule `O=C(N[C@H]1CC[C@H](CCN2CCN(c3cccc(Cl)c3Cl)CC2)CC1)N1CCOCC1` [Compound 2, trans-N-(4-{2-[4-(2,3-dichloro-phenyl)-piperazine-1-yl]-ethyl}-cyclohexyl)-morpholine-4 carboxamide] has a Ki [1] of 5.73 nM, a Ki (dopamine D2L receptor) of 0.4 nM and a Ki (dopamine D2S receptor) of 0.52 nM. For the same molecule, the “functional character at the dopamine D2 receptor” value (dopamine D2 receptor [2]) was “partial agonist”, the “functional character at the serotonin 5-HT1A receptor” value [3] was “weak partial agonist” and the Ki [4] was 1.11 nM. The “functional character at the serotonin 5-HT2B receptor” value [5] was “full antagonist”.

In the case of `CN(C)C(=O)N[C@H]1CC[C@H](CCN2CCN(c3cccc(Cl)c3Cl)CC2)CC1` [cariprazine, trans-N-[4-[2-[4-(2,3-dichlorophenyl)piperazin-1-yl]ethyl]cyclohexyl]-N',N'-dimethylurea], the “excessive motility / hyperactivity (distance travelled)” value ([6]; significant at 0.1 mg/kg, Figure 4) is listed as “fully reversed”, the “excessive circling behavior (number of 360-degree turns)” value ([6]; significant at all doses, Figure 5) is listed as “statistically significant; also recorded: fully reversed” and the “functional character at the dopamine D2 receptor” value (dopamine D2 receptor [7]) is listed as “partial agonist”. For the same molecule, the “isolation-induced vocalizations (number of USV vocalizations)” value [8] was “statistically significant; also recorded: fully reversed”, the “intrinsic activity at the serotonin 5-HT1A receptor” value ([9]; literature (Heusler et al. 2016; Kiss et al. 2010)) was 38% and the “functional character at the serotonin 5-HT1A receptor” value ([9]; literature) was “weak partial agonist”. For the same molecule, the “social play deficit (time spent playing)” value [10] was “statistically significant; also recorded: partially nevertheless, significantly reversed” and the “functional character at the serotonin 5-HT2B receptor” value [11] was “full antagonist”.
